Results reported in patent US6313114A, “3,4-Dihydro-2H-benzo[1,4]oxazinyl-methyl)-[3-(1H-indol-3yl)-alkyl]- amines” (American Home Products Corp, priority 1999, dated 2001).

Assays:
human 5-HT1A receptor = biological target: T1, human 5-HT1A receptor (Homo sapiens, UniProt P08908); assay: [3H]8-OH-DPAT competition binding to cloned human 5-HT1A receptor (CHO cell membranes); conditions: [3H]8-OH-DPAT 1.5 nM; CHO cells expressing human 5-HT1A
T1 construct: expressed in transfected cells
T1 sequence (P08908 1-422): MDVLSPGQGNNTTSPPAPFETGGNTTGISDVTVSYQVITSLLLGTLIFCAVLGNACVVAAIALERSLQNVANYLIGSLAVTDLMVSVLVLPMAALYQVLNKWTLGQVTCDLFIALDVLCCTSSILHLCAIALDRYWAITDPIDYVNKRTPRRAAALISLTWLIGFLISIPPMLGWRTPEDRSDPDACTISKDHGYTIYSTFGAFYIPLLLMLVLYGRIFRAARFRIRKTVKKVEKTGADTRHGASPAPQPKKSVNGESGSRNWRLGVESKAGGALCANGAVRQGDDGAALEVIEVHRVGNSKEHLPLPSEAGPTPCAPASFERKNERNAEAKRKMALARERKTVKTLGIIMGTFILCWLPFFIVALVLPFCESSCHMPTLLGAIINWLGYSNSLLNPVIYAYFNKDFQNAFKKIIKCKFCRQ
Procedure: A stable Chinese hamster ovary cell line expressing the human 5-HT1A receptor subtype (5H-HT1A .CHO cells) was employed throughout this procedure. Cells were maintained in DMEM supplemented with 10% fetal calf serum, non-essential amino acids and penicillin/ streptomycin.
Cells were grown to 95-100% confluency as a monolayer before membranes were harvested for binding studies. Cells were gently scraped from the culture plates, transferred to centrifuge tubes, and washed twice by centrifugation (at 2000 rpm for 10 min., 4° C.) in buffer (50 mM Tris; pH 7.5). The resulting pellets were aliquoted and stored at -80° C. until needed. On the day of assay, the cells were thawed on ice, and resuspended in buffer. Studies were conducted using [^3 H]8-OH-DPAT as the radioligand. The binding assay was performed in 96 well microtiter plates in a final total volume of 250 μL of buffer. […] Non-specific binding was determined in the presence of 10 μM 5HT. Saturation analysis was conducted by using [^3 H]8-OH-DPAT at concentrations ranging from 0.3-30 nM. Following a 30 minute incubation at room temperature, the reaction was terminated by the addition of ice cold buffer and rapid filtration using a M-96 Brandel Cell Harvester through a GF/B filter presoaked for 30 minutes in 0.5% polyethyleneimine.

serotonin transporter = biological target: T2, serotonin transporter (Rattus norvegicus, UniProt P31652); assay: 3H-paroxetine binding to serotonin transporter in rat frontal cortical membranes; parameters: species or system male Sprague-Dawley rats
T2 construct: frontal cortical membranes prepared from male Sprague-Dawley rats; from tissue; host or cells: frontal cortical membranes of male Sprague-Dawley rats
T2 sequence (P31652 whole entry): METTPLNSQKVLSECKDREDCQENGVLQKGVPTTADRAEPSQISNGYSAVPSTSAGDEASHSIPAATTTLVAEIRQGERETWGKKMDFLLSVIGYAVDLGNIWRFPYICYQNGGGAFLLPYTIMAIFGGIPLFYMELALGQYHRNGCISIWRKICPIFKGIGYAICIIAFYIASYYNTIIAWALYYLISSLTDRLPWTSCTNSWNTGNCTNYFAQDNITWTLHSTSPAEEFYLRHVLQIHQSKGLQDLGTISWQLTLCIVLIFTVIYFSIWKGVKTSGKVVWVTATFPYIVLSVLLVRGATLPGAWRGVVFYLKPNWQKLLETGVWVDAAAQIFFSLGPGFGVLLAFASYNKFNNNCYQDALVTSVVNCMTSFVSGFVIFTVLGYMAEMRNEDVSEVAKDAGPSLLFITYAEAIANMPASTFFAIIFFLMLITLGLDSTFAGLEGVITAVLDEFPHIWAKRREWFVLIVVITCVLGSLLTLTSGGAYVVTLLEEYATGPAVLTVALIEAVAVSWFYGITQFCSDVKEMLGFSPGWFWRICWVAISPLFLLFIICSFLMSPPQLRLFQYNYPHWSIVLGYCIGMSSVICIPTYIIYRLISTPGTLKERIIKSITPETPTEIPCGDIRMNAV
Procedure: Briefly, frontal cortical membranes prepared from male Sprague-Dawley rats were incubated with ^3 H-paroxetine (0.1 nM) for 60 min at 25° C. All tubes also contained either vehicle, test compound (one to eight concentrations), or a saturating concentration of fluoxetine (10 μM) to define specific binding. All reactions were terminated by the addition of ice cold Tris buffer followed by rapid filtration using a Tom Tech filtration device to separate bound from free ^3 H-paroxetine.

In the case of c1ccc(CN2CC(CNCCCCc3c[nH]c4ccccc34)Oc3ccccc32)cc1 (centres unmarked) [Example 4, (4-Benzyl-3,4-dihydro-2H-benzo[1,4]oxazin-2ylmethyl)-[3-(1H-indo-3-yl)-butyl]-amine], the Ki (human 5-HT1A receptor) is reported as 0.0761 µM and the Ki (serotonin transporter) is reported as 0.081 µM.
